Measurements as given in patent publication US11952586B2, “B-cell cultivation method” (Hoffmann-La Roche Inc., priority 2017, dated 2024).

Legend:
single deposited B-cells = test: co-cultivation of single deposited B-cells with EL-4 B5 feeder cells; IgG in supernatant by ELISA; format: cell-based, rabbit; settings: addition of PAP-1 to the co-cultivation
Procedure: Single cell sorted B-cells were cultured in 96-well plates with 200 μl/well EL-4 B5 medium with Pansorbin Cells (SAC) (Calbiochem (Merck), Darmstadt, Deutschland), EL-4 B5 cells (0-5×10^4/well) and rabbit thymocyte supernatant or cytokine mix, respectively, for 7 days at 37° C. in an atmosphere of 5% CO2 in the incubator. B-cell culture supernatants were removed for screening and the cells harvested immediately for variable region gene cloning or frozen at −80° C. in 100 μl RLT buffer (Qiagen, Hilden, Germany).
A mixture of 0.5 μg/ml of biotinylated mouse anti-rabbit IgG antibody (Sigma-Aldrich) and 0.35 μg/ml anti-rabbit IgG HRP conjugate (Sigma-Aldrich) was transferred to 384 well streptavidin coated microtiter plates (MicroCoat Biotechnologie GmbH). Dilutions of B-cell supernatants in PBS supplemented with 0.5% BSA and 0.05% Tween®-20 were added and incubated for 90 min at RT. After repeated washing (6×) with PBST (phosphate buffered saline with 0.2% Tween buffer the plates were developed with BM Blue® HRP substrate solution and color formation was measured by absorbance at 370 nm. A commercial rabbit IgG (Sigma-Aldrich) was used as a calibration standard.

murine B-cells = test: co-cultivation of murine B-cells with feeder mix additives; format: cell-based
Procedure: (§1) Thus, in one embodiment of all methods as reported herein the feeder mix for the co-cultivation of murine- or hamster-B-cells comprises IL-4.
(§2) Thus, in one embodiment of all methods as reported herein the feeder mix for the co-cultivation of murine-B-cells or hamster-B-cells comprises IL-6. In one embodiment the IL-6 is added at a concentration of 50 ng/ml. In one embodiment IL-6 is added at a concentration of 10 ng/ml, if high IgG-concentration is required. In one embodiment the addition of IL-6 is after three days of co-cultivation of the selected B-cells and EL-4 B5 cells.

hamster B-cells = test: co-cultivation of hamster B-cells with feeder mix additives; format: cell-based
Procedure: as §1, §2

O=c1ccc2c(OCCCCOc3ccccc3)c3ccoc3cc2o1 [PAP-1, 5-(4-phenoxybutoxy) psoralene]
number of B-cell clones (single deposited B-cells): without decreasing the number of B-cell clones | rbIgG secretion of B-cells (single deposited B-cells): increases the rbIgG secretion of B-cells in a concentration dependent manner

IL-6: interleukin-6, cytokine added to the feeder mix
number of IgG+-wells/cell clones (murine B-cells; addition of IL-6 to the feeder mix, murine-B-cells): increased number of IgG^+-wells/cell clones | IgG-concentration (hamster B-cells; addition of IL-6 to the feeder mix, hamster-B-cells): increased IgG-concentration

B1: IL-4: interleukin-4, cytokine added to the feeder mix (protein, UniProt P05112 25-153, looked up)
Interleukin-4: HKCDITLQEIIKTLNSLTEQKTLCTELTVTDIFAASKNTTEKETFCRAATVLRQFYSHHEKDTRCLGATAQQFHRHKQLIRFLKRLDRNLWGLAGLNSCPVKEANQSTLENFLERLKTIMREKYSKCSS
number of IgG+-wells/cell clones and IgG-concentration in the supernatant (murine B-cells; addition of IL-4 to the feeder mix, murine B-cells): increases the number of IgG^+-wells/cell clones as well as the IgG-concentration in the supernatant | number of IgG+-wells/cell clones and IgG-concentration in the supernatant (hamster B-cells; addition of IL-4 to the feeder mix, hamster B-cells): increases the number of IgG^+-wells/cell clones as well as the IgG-concentration in the supernatant
